Measurements as given in ChEMBL document CHEMBL4765322, “Novel curcumin derivatives as P-glycoprotein inhibitors: Molecular modeling, synthesis and sensitization of multidrug resistant cells to doxorubicin” (Eur J Med Chem, 2020).

Legend:
[1] = Cytotoxicity against human K562/4 cells assessed as reduction in cell viability measured after 72 hrs by MTT assay; type: cell-based; conditions: K562/4, 72 h
[2] = Inhibition of P-gp mediated multidrug resistance in human K562/4 cells assessed as sensitization of cells to doxorubicin by measuring reduction in cell viability preincubated with compound for 30 mins prior to 1 uM doxorubicin addition and measured after 72 hrs by MTT assay; type: cell-based
[3] = tested on: K562/4; conditions: Homo sapiens
Description: Inhibition of P-gp-mediated doxorubicin efflux in human K562/4 cells assessed as minimal concentration required for the effect by flow cytometric analysis

Compound | IC50 [1] | IC50 [2] | MED [3]
CCNC(=O)c1ccc(-n2nc(/C=C/c3ccc4c(c3)OCO4)cc2/C=C/c2ccc3c(c2)OCO3)cc1 | > 50 µM |  | 
COc1cc(/C=C/c2cc(/C=C/c3ccc(O)c(OC)c3)n(-c3ccc(C(=O)OC(C)(C)C)cc3)n2)ccc1O | > 25 µM |  | 
COc1ccc(/C=C/c2cc(/C=C/c3ccc(OC)c(OC)c3)n(-c3ccc(C(=O)NCC(C)C)cc3)n2)cc1OC | > 50 µM | 400 nM | 
COc1cc(/C=C/c2cc(/C=C/c3ccc(O)c(OC)c3)n(-c3ccc(C(=O)OC(C)C)cc3)n2)ccc1O | 12.5 µM |  | 
COc1cc(/C=C/c2cc(/C=C/c3ccc(O)c(OC)c3)n(-c3ccc(C(=O)OC/C=C(\C)CCC=C(C)C)cc3)n2)ccc1O | > 25 µM |  | 
COc1cc(/C=C/c2cc(/C=C/c3ccc(O)c(OC)c3)n(-c3ccc(C(=O)OC/C=C(\C)CC/C=C(\C)CCC=C(C)C)cc3)n2)ccc1O | > 25 µM |  | 
CCOC(=O)c1ccc(-n2nc(/C=C/c3ccc(O)c(OC)c3)cc2/C=C/c2ccc(O)c(OC)c2)cc1 | 10.2 µM |  | 
CCOC(=O)c1ccc(-n2nc(/C=C/c3ccc(O)cc3)cc2/C=C/c2ccc(O)cc2)cc1F | 10.3 µM |  | 
CCOC(=O)c1ccc(-n2nc(/C=C/c3ccc(OC)c(OC)c3)cc2/C=C/c2ccc(OC)c(OC)c2)cc1[N+](=O)[O-] | > 50 µM |  | 
CCOC(=O)c1ccc(-n2nc(/C=C/c3ccc(O)cc3)cc2/C=C/c2ccc(O)cc2)cc1 | 11.1 µM |  | 
COc1cc(/C=C/c2cc(/C=C/c3ccc(O)c(OC)c3)n(-c3ccc(C(=O)OCC(C)C)cc3)n2)ccc1O | 6.4 µM |  | 
COC(=O)c1ccc(-n2nc(/C=C/c3ccc(O)c(OC)c3)cc2/C=C/c2ccc(O)c(OC)c2)cc1 | 9.6 µM |  | 
CCNC(=S)c1ccc(-n2nc(/C=C/c3ccc(OC)c(OC)c3)cc2/C=C/c2ccc(OC)c(OC)c2)cc1 | > 50 µM | 500 nM | 
COc1cc(/C=C/c2cc(/C=C/c3ccc(O)c(OC)c3)n(-c3ccc(C(=O)OCC(F)(F)F)cc3)n2)ccc1O | > 25 µM |  | 
CCOC(=O)c1ccc(-n2nc(/C=C/c3ccc(OC)c(OC)c3)cc2/C=C/c2ccc(OC)c(OC)c2)cc1 | > 50 µM | 800 nM | 
CCNS(=O)(=O)c1ccc(-n2nc(/C=C/c3ccc(OC)c(OC)c3)cc2/C=C/c2ccc(OC)c(OC)c2)cc1 | > 50 µM | 500 nM | 
COc1ccc(/C=C/c2cc(/C=C/c3ccc(OC)c(OC)c3)n(-c3ccc(C(=O)N4CCCC4)cc3)n2)cc1OC | > 50 µM | 500 nM | 
CCNC(=O)c1ccc(-n2nc(/C=C/c3ccc(O)c(OC)c3)cc2/C=C/c2ccc(O)c(OC)c2)cc1 | 4.3 µM |  | 
CCNC(=O)c1ccc(-n2nc(/C=C/c3ccc(OC)c(OC)c3)cc2/C=C/c2ccc(OC)c(OC)c2)cc1 | > 50 µM | 200 nM | 
COc1cc(/C=C/c2cc(/C=C/c3ccc(O)c(OC)c3)n(-c3ccc(F)cc3)n2)ccc1O | 10.8 µM |  | 
CCOC(=O)c1ccc(-n2nc(/C=C/c3ccc(O)c(OC)c3)cc2/C=C/c2ccc(O)c(OC)c2)cc1F | 5.4 µM |  | 
CCOC(=O)c1ccc(-n2nc(/C=C/c3ccc(OC)c(OC)c3)cc2/C=C/c2ccc(OC)c(OC)c2)cc1F | > 50 µM | 200 nM | 
COc1cc2c(cc1OC)CN(CCc1ccc(NC(=O)c3cc(OC)c(OC)cc3NC(=O)c3cnc4ccccc4c3)cc1)CC2 |  |  | 1 µM
